pIC50: −log10 of the molar value. A value given as a limit tells only on which side of the number the result lay.

Here are results for 38 molecules from ChEMBL document CHEMBL4627256, “N-(3,5-Dichloro-4-(2,4,6-trichlorophenoxy)phenyl)benzenesulfonamide: A new dual-target inhibitor of mitochondrial complex II and complex III via structural simplification” (Bioorg Med Chem, 2020).

Test [1] can be described thus: Inhibition of porcine succinate-cytochrome c reductase using succinate and cytochrome c as substrates by spectrophotometric based assay. Details: species or system Sus scrofa.
The species entered for test [2] is Sus scrofa. Description: Inhibition of porcine heart succinate-cytochrome c reductase at 10 uM using succinate and cytochrome c as substrates by spectrophotometric based assay relative to control.
The nature of test [3]: Inhibition of porcine succinate-ubiquinone oxidoreductase using succinate and 2,6-dichloroindophenol as substrates by spectrophotometric based assay. The arrangement: species or system Sus scrofa.
The species entered for test [4] is Sus scrofa. Put plainly: Inhibition of porcine cytochrome b-c1 complex at 10 uM using DBH2 and cytochrome c as substrates by spectrophotometric based assay relative to control.
Test [5] in a line: Inhibition of porcine cytochrome b-c1 complex using DBH2 and cytochrome c as substrates by spectrophotometric based assay. The arrangement: species or system Sus scrofa.
The species named for test [6] is Sus scrofa. Description: Inhibition of porcine succinate-ubiquinone oxidoreductase at 10 uM using succinate and 2,6-dichloroindophenol as substrates by spectrophotometric based assay relative to control.

The pIC50 is the IC50 on a negative log10 scale, so that one unit is a factor of ten. Low readings indicate a high IC50, high ones a low IC50. Molecule `O=S(=O)(Nc1cc(Cl)c(Oc2ccc(Cl)cc2Cl)c(Cl)c1)c1ccc(C(F)(F)F)cc1Cl` had a pIC50 in test [1] of 5.93.

The inhibition is the change of the read-out against control, counted positive when it falls. For `O=S(=O)(Nc1ccc(Oc2c(Cl)cc(Cl)cc2Cl)c(Cl)c1)c1ccccc1`, the pIC50 in test [1] is < 5.00. In the test filed under Sus scrofa [2], this molecule returned an inhibition of 47%.

On to `CC(C)CC(C)c1sccc1NC(=O)c1cn(C)nc1C(F)(F)F` (centres undefined) [PENTHIOPYRAD], for which the pIC50 was 5.88 in test [1] and 5.92 in test [3]. Also, the inhibition in the test listed under Sus scrofa [4] is < 10%.

The molecule `Cc1cccc(S(=O)(=O)Nc2cc(Cl)c(Oc3c(Cl)cc(Cl)cc3Cl)c(Cl)c2)c1` had a pIC50 in test [1] of 6.42.

In turn, `Cc1ccccc1S(=O)(=O)Nc1cc(Cl)c(Oc2c(Cl)cc(Cl)cc2Cl)c(Cl)c1` had a pIC50 in test [1] of 6.10.

In the case of `O=S(=O)(Nc1cc(Cl)c(Oc2ccc3ccccc3c2)c(Cl)c1)c1ccccc1`, the pIC50 in test [1] was < 5.00. This molecule showed an inhibition in the test listed under Sus scrofa [2] of 48%.

Turning to `O=S(=O)(Nc1cc(Cl)c(Oc2c(Cl)cc(Cl)cc2Cl)c(Cl)c1)c1ccc(C(F)(F)F)cc1`, the pIC50 in test [1] was 6.28.

As to `Cc1ccc(S(=O)(=O)Nc2cc(Cl)c(Oc3c(Cl)cc(Cl)cc3Cl)c(Cl)c2)cc1`, in test [1], the pIC50 was 5.78. This pIC50 lies 0.50 log units lower than the previous one.

Consider `O=S(=O)(Nc1ccc(Oc2ccc(Cl)cc2Cl)c(Cl)c1)c1ccc(C(F)(F)F)cc1Cl`, for which, in test [1], the pIC50 is 5.97.

Take `O=S(=O)(Nc1ccc(Oc2ccc(Cl)cc2Cl)cc1)c1ccc(Cl)cc1Cl`: the pIC50 in test [1] is 5.79.

Consider `O=S(=O)(Nc1cc(Cl)c(Oc2c(Cl)cc(Cl)cc2Cl)c(Cl)c1)c1ccccc1`, for which the figures for the pIC50 in test [1], in test [3] and in test [5] were 7.10, 6.29 and 5.51, respectively.

The molecule `O=S(=O)(Nc1cc(Cl)c(Oc2ccc(Cl)cc2Cl)c(Cl)c1)c1ccc(Cl)cc1Cl` showed a pIC50 in test [1] of 5.86.

On to `O=[N+]([O-])c1ccc(S(=O)(=O)Nc2ccc(Oc3ccc(Cl)cc3Cl)cc2)cc1`, for which the pIC50 in test [1] is 5.31. Compared with the last molecule, the pIC50 is 0.55 log units lower.

The molecule `COc1ccc(S(=O)(=O)Nc2cc(Cl)c(Oc3c(Cl)cc(Cl)cc3Cl)c(Cl)c2)cc1` gave a pIC50 in test [1] of 5.73.

Turning to `O=S(=O)(Nc1cc(F)c(Oc2c(F)cc(F)cc2F)c(F)c1)c1ccccc1`, the pIC50 in test [1] is 5.19; in test [3] it was 5.69. In the test filed under Sus scrofa [4], this molecule returned an inhibition of 40%.

In the test filed under Sus scrofa [6], `CO/C=C(/C(=O)OC)c1ccccc1Oc1cc(Oc2ccccc2C#N)ncn1` [AZOXYSTROBIN] yielded an inhibition of 23%. Further, the pIC50 in test [1] was 6.54; in test [5], 6.28.

On to `O=S(=O)(Nc1ccc(Oc2ccccc2)cc1)c1ccccc1`, for which the pIC50 in test [1] is < 5.00. The inhibition in the test filed under Sus scrofa [2] turned out to be 32%.

Regarding `O=S(=O)(Nc1ccc(Oc2ccc(Cl)cc2Cl)c(Cl)c1)c1ccc(Cl)cc1Cl`, in test [1], the pIC50 was 5.89.

`O=S(=O)(Nc1cc(Cl)c(Oc2c(Cl)cc(Cl)cc2Cl)c(Cl)c1)c1ccc(Cl)cc1Cl` showed a pIC50 in test [1] of 5.99.

In test [1], `CC(C)(C)c1ccc(S(=O)(=O)Nc2cc(Cl)c(Oc3c(Cl)cc(Cl)cc3Cl)c(Cl)c2)cc1` showed a pIC50 of 6.00. This pIC50 and that of the molecule before are within 0.2 log units of each other.

In test [1], `O=[N+]([O-])c1ccc(S(=O)(=O)Nc2ccc(Oc3ccc(Cl)cc3Cl)c(Cl)c2)cc1` showed a pIC50 of 5.65.

`O=S(=O)(Nc1cc(Cl)c(Oc2c(Cl)cc(Cl)cc2Cl)c(Cl)c1)c1ccc(F)cc1` showed a pIC50 in test [1] of 6.08.

The molecule `O=S(=O)(Nc1cc(Cl)c(Oc2ccc(Cl)cc2Cl)c(Cl)c1)c1c(Cl)cc(Cl)cc1Cl` showed a pIC50 in test [1] of 5.95.

Consider `O=S(=O)(Nc1ccc(Oc2ccc(Cl)cc2Cl)cc1)c1ccccc1`, for which the pIC50 in test [1] is 5.03.

In test [1], `O=S(=O)(Nc1ccc(Oc2ccc(Cl)cc2Cl)c(Cl)c1)c1c(Cl)cc(Cl)cc1Cl` had a pIC50 of 5.88.

With `O=S(=O)(Nc1cc(Cl)c(Oc2ncc(C(F)(F)F)cc2Cl)c(Cl)c1)c1ccccc1`, in test [1], the pIC50 was < 5.00. For the same molecule, in the test filed under Sus scrofa [2], the inhibition is 9%.

Take `O=S(=O)(Nc1cc(Cl)c(Oc2c(Cl)cc(Cl)cc2Cl)c(Cl)c1)c1c(Cl)cc(Cl)cc1Cl`: the pIC50 in test [1] was 6.66.

`O=S(=O)(Nc1cc(Cl)c(Oc2c(Cl)cc(Cl)cc2Cl)c(Cl)c1)c1ccc(C(F)(F)F)cc1Cl` had a pIC50 in test [1] of 5.97.

With `Cc1cc(C)c(Oc2c(C)cc(NS(=O)(=O)c3ccccc3)cc2C)c(C)c1`, in test [1], the pIC50 was < 5.00. In addition, the inhibition in the test listed under Sus scrofa [2] was 3%.

In turn, `O=[N+]([O-])c1ccc(S(=O)(=O)Nc2cc(Cl)c(Oc3c(Cl)cc(Cl)cc3Cl)c(Cl)c2)cc1` showed a pIC50 in test [1] of 5.80.

The molecule `O=S(=O)(Nc1cc(Cl)c(Oc2ccc(Cl)cc2Cl)c(Cl)c1)c1ccccc1` gave a pIC50 in test [1] of 5.96.

Regarding `CN(C)S(=O)(=O)n1cnc(S(=O)(=O)Nc2cc(Cl)c(Oc3c(Cl)cc(Cl)cc3Cl)c(Cl)c2)n1`, the figures for the pIC50 in test [1], in test [3] and in test [5] were 5.49, 6.30 and 4.45, respectively.

In test [1], `O=[N+]([O-])c1ccc(S(=O)(=O)Nc2cc(Cl)c(Oc3ccc(Cl)cc3Cl)c(Cl)c2)cc1` showed a negative logarithm of the IC50 (pIC50) of 5.45.

Turning to `O=S(=O)(Nc1ccc(Oc2ccc3ccccc3c2)c(Cl)c1)c1ccccc1`, the pIC50 in test [1] is < 5.00. In the test filed under Sus scrofa [2], this molecule came in with an inhibition of 47%.

In test [1], `O=S(=O)(Nc1ccc(Oc2ccc(Cl)cc2Cl)cc1)c1c(Cl)cc(Cl)cc1Cl` had a pIC50 of 5.83.

`O=S(=O)(Nc1ccc(Oc2ccc(Cl)cc2Cl)c(Cl)c1)c1ccccc1`: the negative-log IC50 (pIC50) in test [1] was 5.70.

In test [1], `O=S(=O)(Nc1ccc(Oc2ccc(Cl)cc2Cl)cc1)c1ccc(C(F)(F)F)cc1Cl` gave a pIC50 of 5.86.

As to `O=S(=O)(Nc1cc(Cl)c(Oc2c(Cl)cc(Cl)cc2Cl)c(Cl)c1)c1ccc(Cl)cc1`, in test [1], the pIC50 was 6.20.
